Measurements reported in patent US12485170B2, “Lipid composition targeting antigen-presenting cells and use thereof” (Beijing Youcare Kechuang Pharmaceutical Technology Co., Ltd., priority 2024, dated 2025).
“Also recorded” adds a separate entry of the source. Where two headings read alike, the source gives them in different places.

Assay: Solubility of anionic lipids in ethanol during preparation
Protocol: General method 1: The components of the lipid composition (including permanently anionic lipids, permanently cationic lipids, and/or neutral lipids, or combinations thereof) were dissolved in ethanol according to the specified molar ratio to prepare an ethanol lipid complex solution (with a total lipid concentration of 100 to 600 mM). The ethanol lipid complex solution was rapidly added to RNase-free water using the ethanol injection method. After stirring for 30 minutes, the resulting lipid composition solution was filtered through a polycarbonate membrane with a pore size of 100 nm to 400 nm.
General method 2: Permanently anionic lipids or compounds were dissolved in RNase-free water to obtain RNase-free water containing permanently anionic lipids. Permanently cationic lipids and neutral lipids were dissolved in ethanol according to the specified molar ratio to prepare an ethanol lipid complex solution (with a total lipid concentration of 100 to 600 mM). The ethanol lipid complex solution was rapidly added to the RNase-free water containing permanently anionic lipids using the ethanol injection method. After stirring for 30 minutes, the resulting lipid composition solution was filtered through a polycarbonate membrane with a pore size of 100 nm to 400 nm.
The molar ratio of permanently anionic lipids, permanently cationic lipid DOTMA, and neutral lipid DOPE in the different complexes was controlled at 1:2:1, and the particle size and PDI were measured.

Notes: solubility of the anionic lipid in ethanol | Notes: solubility of the anionic lipid in ethanol (listed as farnesyl pyrophosphate) | Notes: solubility of the anionic lipid in ethanol (listed as pA (2′-OMe) mpG) | Structure (SMILES) | Notes: solubility of the anionic lipid in ethanol (phosphate sodium salt)
Insoluble in ethanol, | lower solubility in ethanol |  | CC(C)=CCC/C(C)=C/CC/C(C)=C/CO[P@@](=O)(O)OP(=O)(O)O (stereo in doubt) [Farnesyl pyrophosphate] | 
Soluble in ethanol, |  |  | CCCCCCCC/C=C\CCCCCCCC(=O)O [Oleic acid] | 
 |  |  | CCCCCCCC/C=C\CCCCCCCC(=O)OC[C@H](COP(=O)([O-])OCCNC(C)=O)OC(=O)CCCCCCC/C=C\CCCCCCCC.[Na+] [ADOPE, 2-acetamidoethyl ((R)-2,3-bis(oleoyloxy)propyl) phosphate sodium salt] | good solubility in ethanol; also recorded: Soluble in ethanol,
Insoluble in ethanol, |  | lower solubility in ethanol | COC1C(OP(=O)(O)OC[C@H]2O[C@@H](n3cnc4c(=O)[nH]c(N)nc43)C(O)C2O)[C@@H](COP(=O)(O)O)O[C@H]1n1cnc2c(N)ncnc21 (stereo partly drawn) [pA(2′-OMe)mpG, ((2R,3S,4S,5R)-3-(((((2R,3R,4S,5R)-5-(2-amino-6-oxo-1,6-dihydro-9H-purin-9-yl)-3,4-dihydroxytetrahydrofuran-2-yl)methoxy) (hydroxy)phosphoryl)oxy)-5-(6-amino-9H-purin-9-yl)-4-methoxytetrahydrofuran-2-yl) methyl dihydrogen phosphate] | 
